Test results taken from paper PMC7286362 (Journal of medicinal chemistry, 2020).
Read-outs that look alike come from different tables or passages of the source.

What was measured:
PRMT8 = PRMT8 (Homo sapiens, UniProt Q9NR22); assay: Mass spectrometry analysis of covalent binding, PRMT8; conditions: 15 μM protein, 300 μM compound, 1 h at rt
PRMT6 [1] = target: T1, PRMT6 (Homo sapiens, UniProt Q96LA8); assay: Mass spectrometry analysis of covalent binding, PRMT6; conditions: 15 μM protein, 300 μM compound, 1 h at rt
PRMT3 [2] = target: T2, PRMT3 (Homo sapiens, UniProt O60678); assay type: cell-based; conditions: HEK293T cells, 20 h, concentrations up to 20 μM
HEK293T cells = assay: Cell viability assay; assay type: cell-based; conditions: up to 20 μM, 3 days, CCK-8
[3] = system: PNT2 (a nontumorigenic prostate cell line); assay: Cell viability assay; assay type: cell-based; conditions: up to 20 μM, 3 days, CCK-8
[4] = system: PKMTs, DNMTs, and type II, III PRMTs; assay: Methyltransferase selectivity assay, PKMTs, DNMTs and type II, III PRMTs; assay type: biochemical; conditions: at 10 μM
PRMT6 [5] = target: T1, PRMT6; assay: KI and kinact determination from time-dependent IC50 values; assay type: biochemical; conditions: for time dependence of IC50 against PRMT6: preincubation 1 to 30 min, SPA
[6] = target: T3, endogenously expressed PRMT4 (Homo sapiens, UniProt Q86X55); assay: Cellular PRMT4 assay: BAF155-Rme2a levels in MCF7 cells; assay type: cell-based; conditions: 2 days, concentrations up to 20 μM
T3 sequence (Q86X55 1-608): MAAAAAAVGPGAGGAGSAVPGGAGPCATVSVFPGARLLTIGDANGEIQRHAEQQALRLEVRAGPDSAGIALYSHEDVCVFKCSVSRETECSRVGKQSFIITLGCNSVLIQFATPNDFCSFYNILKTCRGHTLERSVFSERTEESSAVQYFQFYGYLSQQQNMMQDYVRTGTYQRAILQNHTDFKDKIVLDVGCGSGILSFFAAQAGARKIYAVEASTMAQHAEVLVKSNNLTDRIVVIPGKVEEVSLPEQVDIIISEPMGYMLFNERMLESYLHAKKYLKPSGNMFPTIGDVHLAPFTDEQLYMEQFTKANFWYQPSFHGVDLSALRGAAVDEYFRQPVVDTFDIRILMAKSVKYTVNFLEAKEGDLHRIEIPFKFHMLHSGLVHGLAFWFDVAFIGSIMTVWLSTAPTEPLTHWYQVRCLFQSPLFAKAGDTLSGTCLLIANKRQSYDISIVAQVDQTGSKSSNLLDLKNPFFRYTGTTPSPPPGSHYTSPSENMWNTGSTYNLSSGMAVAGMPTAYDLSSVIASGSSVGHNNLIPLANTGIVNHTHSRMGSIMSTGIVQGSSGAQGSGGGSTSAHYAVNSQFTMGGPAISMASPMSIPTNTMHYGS

PRMT4 = target: T4, PRMT4 (Homo sapiens, UniProt Q86X55); assay: Mass spectrometry analysis of covalent binding, PRMT4; conditions: 15 μM protein, 300 μM compound, 1 h at rt
T4 sequence (Q86X55 1-608): T3 sequence (Q86X55 1-608)

PRMT6 [7] = target: T1, PRMT6; assay type: cell-based; conditions: for inhibition of H3R2me2a in cells: PRMT6-transfected HEK293T cells, 20 h
PRMT3 [8] = target: T2, PRMT3; assay: Mass spectrometry analysis of covalent binding, PRMT3; conditions: 15 μM protein, 300 μM compound, 1 h at rt
DNMT3A/3L = DNMT3A/3L (Homo sapiens, UniProt Q9Y6K1); assay: Methyltransferase selectivity assay, DNMT3A/3L; assay type: biochemical; conditions: read-out: inhibition of DNMT3A/3L
PRMT1 = PRMT1 (Homo sapiens, UniProt Q99873); assay: Mass spectrometry analysis of covalent binding, PRMT1; conditions: 15 μM protein, 300 μM compound, 1 h at rt
type I PRMTs = assay: Methyltransferase selectivity assay, type I PRMTs; assay type: biochemical
MCF-7 cells = assay: Cell viability assay; assay type: cell-based; conditions: up to 20 μM, 3 days, CCK-8
PRMT6 [9] = target: T1, PRMT6; assay: Scintillation proximity assay; assay type: biochemical; conditions: SPA, 1 h preincubation

T2 sequence (O60678 whole entry, species assumed): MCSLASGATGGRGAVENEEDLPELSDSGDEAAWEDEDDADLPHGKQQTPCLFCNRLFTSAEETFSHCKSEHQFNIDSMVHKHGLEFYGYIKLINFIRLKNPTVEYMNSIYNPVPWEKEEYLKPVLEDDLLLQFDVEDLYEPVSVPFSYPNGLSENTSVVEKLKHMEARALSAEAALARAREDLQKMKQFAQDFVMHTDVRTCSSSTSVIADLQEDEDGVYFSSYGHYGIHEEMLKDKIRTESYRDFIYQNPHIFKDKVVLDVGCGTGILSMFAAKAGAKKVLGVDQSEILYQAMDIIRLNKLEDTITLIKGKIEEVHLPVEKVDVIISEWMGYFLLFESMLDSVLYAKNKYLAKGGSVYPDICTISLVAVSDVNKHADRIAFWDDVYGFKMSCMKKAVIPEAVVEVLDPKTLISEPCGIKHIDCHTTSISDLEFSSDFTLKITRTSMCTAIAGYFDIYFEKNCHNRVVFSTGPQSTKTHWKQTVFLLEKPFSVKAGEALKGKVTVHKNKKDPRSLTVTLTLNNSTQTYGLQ
T1 sequence (Q96LA8 whole entry): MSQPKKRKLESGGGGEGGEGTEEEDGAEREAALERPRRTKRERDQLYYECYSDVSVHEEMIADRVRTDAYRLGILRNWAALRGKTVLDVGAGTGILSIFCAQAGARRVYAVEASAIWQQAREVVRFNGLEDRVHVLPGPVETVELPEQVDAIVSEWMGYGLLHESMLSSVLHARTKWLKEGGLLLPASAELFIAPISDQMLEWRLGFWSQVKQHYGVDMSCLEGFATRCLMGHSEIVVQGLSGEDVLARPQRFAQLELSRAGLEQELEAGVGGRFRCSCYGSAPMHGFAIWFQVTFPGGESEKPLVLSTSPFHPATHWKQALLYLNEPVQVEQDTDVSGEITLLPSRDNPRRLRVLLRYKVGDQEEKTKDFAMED
Sequence of PRMT8 (Q9NR22 whole entry, species assumed): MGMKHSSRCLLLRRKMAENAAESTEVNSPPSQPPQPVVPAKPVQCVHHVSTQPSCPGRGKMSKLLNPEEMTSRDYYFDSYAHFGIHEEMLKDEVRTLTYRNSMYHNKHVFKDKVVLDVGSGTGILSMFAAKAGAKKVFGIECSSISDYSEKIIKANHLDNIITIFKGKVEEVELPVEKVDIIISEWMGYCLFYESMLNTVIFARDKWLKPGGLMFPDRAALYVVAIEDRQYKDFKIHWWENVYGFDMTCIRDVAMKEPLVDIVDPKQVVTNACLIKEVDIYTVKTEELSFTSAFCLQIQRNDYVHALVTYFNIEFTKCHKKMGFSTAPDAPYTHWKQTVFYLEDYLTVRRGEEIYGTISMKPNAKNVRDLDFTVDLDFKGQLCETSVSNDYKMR
Sequence of DNMT3A/3L (Q9Y6K1 whole entry, looked up, species assumed): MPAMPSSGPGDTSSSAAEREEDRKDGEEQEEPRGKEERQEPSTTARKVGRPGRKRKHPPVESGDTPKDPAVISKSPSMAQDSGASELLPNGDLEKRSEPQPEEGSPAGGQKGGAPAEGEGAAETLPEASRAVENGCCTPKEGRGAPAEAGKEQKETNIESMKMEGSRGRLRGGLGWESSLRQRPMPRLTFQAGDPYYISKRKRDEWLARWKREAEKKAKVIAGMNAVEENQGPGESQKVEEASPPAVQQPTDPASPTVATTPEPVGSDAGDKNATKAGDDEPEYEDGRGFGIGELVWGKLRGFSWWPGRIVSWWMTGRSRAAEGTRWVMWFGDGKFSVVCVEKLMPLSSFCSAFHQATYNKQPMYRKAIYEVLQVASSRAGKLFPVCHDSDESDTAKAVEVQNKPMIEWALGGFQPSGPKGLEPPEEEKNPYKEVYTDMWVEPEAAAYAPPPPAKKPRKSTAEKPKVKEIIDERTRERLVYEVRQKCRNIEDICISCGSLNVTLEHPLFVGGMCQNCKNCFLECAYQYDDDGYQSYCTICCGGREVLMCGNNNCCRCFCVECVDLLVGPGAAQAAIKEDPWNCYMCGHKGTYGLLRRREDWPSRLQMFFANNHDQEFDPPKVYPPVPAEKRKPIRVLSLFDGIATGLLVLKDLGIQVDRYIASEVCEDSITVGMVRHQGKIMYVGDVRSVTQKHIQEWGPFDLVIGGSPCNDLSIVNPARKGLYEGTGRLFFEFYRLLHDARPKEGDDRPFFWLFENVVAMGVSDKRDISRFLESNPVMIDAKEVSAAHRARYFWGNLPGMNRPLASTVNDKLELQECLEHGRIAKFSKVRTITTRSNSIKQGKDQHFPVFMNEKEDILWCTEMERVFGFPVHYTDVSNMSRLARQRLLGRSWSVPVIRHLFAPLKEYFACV
Sequence of DNMT3A/3L (Q9UJW3 whole entry partner, species assumed): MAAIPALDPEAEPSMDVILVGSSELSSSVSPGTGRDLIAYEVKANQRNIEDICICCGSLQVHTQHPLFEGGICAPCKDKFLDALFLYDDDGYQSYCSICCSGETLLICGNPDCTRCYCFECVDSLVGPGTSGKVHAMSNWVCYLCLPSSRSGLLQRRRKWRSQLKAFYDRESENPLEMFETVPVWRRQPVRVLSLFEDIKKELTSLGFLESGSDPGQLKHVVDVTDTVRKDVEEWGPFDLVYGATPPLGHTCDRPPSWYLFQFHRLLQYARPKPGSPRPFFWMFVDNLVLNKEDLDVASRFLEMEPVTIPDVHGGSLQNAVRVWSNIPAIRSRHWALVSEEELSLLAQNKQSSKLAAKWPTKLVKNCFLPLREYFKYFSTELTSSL
Sequence of PRMT1 (Q99873 whole entry, species assumed): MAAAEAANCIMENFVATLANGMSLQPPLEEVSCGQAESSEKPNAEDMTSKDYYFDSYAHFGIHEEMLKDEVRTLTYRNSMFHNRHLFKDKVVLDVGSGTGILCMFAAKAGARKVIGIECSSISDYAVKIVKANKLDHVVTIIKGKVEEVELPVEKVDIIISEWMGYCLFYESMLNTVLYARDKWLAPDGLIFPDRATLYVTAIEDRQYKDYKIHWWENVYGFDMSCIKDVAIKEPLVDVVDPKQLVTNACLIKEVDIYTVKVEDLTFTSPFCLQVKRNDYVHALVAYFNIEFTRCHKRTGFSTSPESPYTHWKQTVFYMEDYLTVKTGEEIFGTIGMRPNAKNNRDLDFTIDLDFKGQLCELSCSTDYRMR

| Structure (SMILES) | covalent modification of PRMT6 (MS adduct) (PRMT6 [1]) | reduction of PRMT3-dependent H4R3me2a in cells (PRMT3 [2]) | cytotoxicity in HEK293T cells (HEK293T cells) | cytotoxicity in PNT2 cells [3] | time dependence of IC50 against PRMT6 (PRMT6 [5]) | reduction of BAF155-Rme2a levels in cells [6] | inhibition of type I PRMTs (type I PRMTs; at 10 μM) [%] | inhibition of type I PRMTs (type I PRMTs; at 50 μM) [%] | cytotoxicity in MCF-7 cells (MCF-7 cells) | inhibition of H3R2me2a in cells (PRMT6 [7]; concentrations up to 10 μM) | further results |
| --- | --- | --- | --- | --- | --- | --- | --- | --- | --- | --- | --- |
| C=CC(=O)Nc1cccc(-c2c[nH]cc2CN(C)CCN)c1 [Compound 4, N-(3-(4-(((2-Aminoethyl)(methyl)amino)methyl)-1H-pyrrol-3-yl)-phenyl)acrylamide] | adduct with mass equal to PRMT6 plus compound 4, with no detectable unmodified PRMT6 | did not significantly reduce this mark | not cytotoxic | not cytotoxic | time-dependent potencies | did not reduce | > 90 | > 50 | not cytotoxic |  | covalent modification of PRMT8 (MS adduct) (PRMT8): no adducts with other type I PRMTs could be detected; inhibition of PKMTs, DNMTs, and type II, III PRMTs [4]: did not significantly inhibit; kinact/KI (PRMT6 [5]): 83000 M⁻¹ s⁻¹; covalent modification of PRMT4 (MS adduct) (PRMT4): no adducts with other type I PRMTs could be detected; selectivity for PRMT6 over PRMT1 in cells (PRMT6 [7]; from cellular assays): ~ 4 fold; selectivity for PRMT6 over PRMT4 in cells (PRMT6 [7]; from cellular assays): > 20 fold; covalent modification of PRMT3 (MS adduct) (PRMT3 [8]): no adducts with other type I PRMTs could be detected; inhibition at 50 µM (DNMT3A/3L): > 50%; covalent modification of PRMT1 (MS adduct) (PRMT1): no adducts with other type I PRMTs could be detected |
| CCC(=O)Nc1cccc(-c2c[nH]cc2CN(C)CCN)c1 [Compound 5, N-(3-(4-(((2-Aminoethyl)(methyl)amino)methyl)-1H-pyrrol-3-yl)-phenyl)propionamide] | neither compound 5 nor compound 7 could modify PRMT6 in a detected level | did not significantly reduce this mark | not cytotoxic | not cytotoxic | no significant change in IC50 values | did not reduce | > 40 | > 80 | not cytotoxic | inhibited H3R2me2a, but was less effective than compound 4 | pIC50 against PRMT6 (PRMT6 [9]): 7.6 ± 0.1 |
| C=CC(=O)Nc1cccc(-c2c[nH]cc2CN(C)CCO)c1 [Compound 7, N-(3-(4-(((2-Hydroxyethyl)(methyl)amino)methyl)-1H-pyrrol-3-yl)phenyl)acrylamide] | neither compound 5 nor compound 7 could modify PRMT6 in a detected level | did not significantly reduce this mark | not cytotoxic | not cytotoxic |  | did not reduce |  |  | not cytotoxic | did not significantly inhibit H3R2me2a |  |
| CC(C)Oc1ccc(-c2c[nH]cc2CN(C)CCN)cc1 [MS023, reference compound] |  |  |  |  |  |  |  |  |  |  | inhibition of H3R2me2a in cells (PRMT6 [7]; at 2 μM (positive control)): effectively inhibited H3R2me2a |
